Assay results taken from patent publication US6841519B1, “Isoxazoline derivatives and herbicides containing the same as the active ingredient” (Kumiai Chemical Industry Co., Ltd., priority 1999, dated 2005).

Tests used:
Assay type in all cases: in vivo
[1] = tested on: Echinochloa oryzicola Vasing. (Eo); test: Test for herbicidal effect by paddy field soil treatment (Test Example 1); details: application amount (active ingredient) 100 g/10 a, examined at the 21st day from the treatment, index per Table 40
In short: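 Scored on a standard scale at day 21 in the greenhouse: herbicidal effect of wettable powder applied to flooded water (3 cm depth) at 100 g a.i./10 ares, one day after sowing Eo into puddled paddy soil.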

[2] = tested on: Echinochloa crus-galli (L.) Beauv. var. crusgall (Ec); test: Test for herbicidal effect by upland field soil treatment (Test Example 2), Ec
In short: (§1)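 Pre-emergence soil treatment: wettable powder diluted in water and sprayed on soil just sown with Ec and Se seeds, delivering 100 g active ingredient per 10 ares in 100 liters per 10 ares. Herbicidal effect was rated against a fixed scale 21 days later, after greenhouse growth.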

[3] = tested on: Setaria viridis (L.) Beauv. (Se); test: Test for herbicidal effect by upland field soil treatment (Test Example 2), Se
In short: as §1

[4] = tested on: Echinochloa crus-galli (L.) Beauv. var. crusgalli (Ec); test: Test for herbicidal effect by upland foliage treatment (Test Example 3); details: 100 g/10 a active ingredient, examined at 14th day
In short: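 Scored 14 days post-spray against a graded standard: greenhouse-grown Ec, 2 weeks old in upland soil, received whole-foliage application of diluted wettable powder (100 g active ingredient per 10 ares, spray volume 100 L per 10 ares).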

[5] = 100 g/10 a active ingredient, examined at 21st day
[6] = application amount (active ingredient) 100 g/10 a, examined at the 21st day from the treatment, index per Table 40

Compound	Herbicidal effect to Eo [1]	Herbicidal effect to Ec [2, 5]	Herbicidal effect to Se [3, 5]	Herbicidal effect to Ec [4]	Herbicidal effect to Ec [2, 6]	Herbicidal effect to Se [3, 6]
C#CCOc1cccc(F)c1CS(=O)(=O)C1=NOC(C)(C)C1 [Compound 1-576]	5 (A herbicidal effect or phytotoxicity of 90% or more)	5 (A herbicidal effect or phytotoxicity of 90% or more)	5 (A herbicidal effect or phytotoxicity of 90% or more)	5 (A herbicidal effect or phytotoxicity of 90% or more)	–	–
CC1(C)CC(S(=O)(=O)Cc2ccc(Cl)cc2)=NO1 [Compound 1-4]	5 (A herbicidal effect or phytotoxicity of 90% or more)	–	–	4 (A herbicidal effect or phytotoxicity of 70% to less than 90%)	5 (A herbicidal effect or phytotoxicity of 90% or more)	5 (A herbicidal effect or phytotoxicity of 90% or more)
CCc1cccc(C)c1CS(=O)(=O)C1=NOC(C)(C)C1 [Compound 1-525]	5 (A herbicidal effect or phytotoxicity of 90% or more)	5 (A herbicidal effect or phytotoxicity of 90% or more)	5 (A herbicidal effect or phytotoxicity of 90% or more)	5 (A herbicidal effect or phytotoxicity of 90% or more)	–	–
CC1(C)CC(S(=O)(=O)Cc2ccccc2S(C)(=O)=O)=NO1 [Compound 1-106]	5 (A herbicidal effect or phytotoxicity of 90% or more)	–	–	4 (A herbicidal effect or phytotoxicity of 70% to less than 90%)	5 (A herbicidal effect or phytotoxicity of 90% or more)	5 (A herbicidal effect or phytotoxicity of 90% or more)
CC1(C)CC(S(=O)(=O)Cc2ccc(Br)cc2F)=NO1 [Compound 1-516]	5 (A herbicidal effect or phytotoxicity of 90% or more)	5 (A herbicidal effect or phytotoxicity of 90% or more)	5 (A herbicidal effect or phytotoxicity of 90% or more)	5 (A herbicidal effect or phytotoxicity of 90% or more)	–	–
CC1(C)CC(S(=O)(=O)Cc2ccc(Cl)cc2Cl)=NO1 [Compound 1-488]	5 (A herbicidal effect or phytotoxicity of 90% or more)	–	–	4 (A herbicidal effect or phytotoxicity of 70% to less than 90%)	5 (A herbicidal effect or phytotoxicity of 90% or more)	4 (A herbicidal effect or phytotoxicity of 70% to less than 90%)
CC1(C)CC(S(=O)(=O)Cc2ccc(F)c(F)c2)=NO1 [Compound 1-497]	5 (A herbicidal effect or phytotoxicity of 90% or more)	–	–	5 (A herbicidal effect or phytotoxicity of 90% or more)	5 (A herbicidal effect or phytotoxicity of 90% or more)	5 (A herbicidal effect or phytotoxicity of 90% or more)
CC(c1ccccc1)S(=O)(=O)C1=NOC(C)(C)C1 (centres unmarked) [Compound 1-581]	5 (A herbicidal effect or phytotoxicity of 90% or more)	5 (A herbicidal effect or phytotoxicity of 90% or more)	5 (A herbicidal effect or phytotoxicity of 90% or more)	4 (A herbicidal effect or phytotoxicity of 70% to less than 90%)	–	–
CC1(C)CC(S(=O)(=O)Cc2cc(C(F)(F)F)ccc2F)=NO1 [Compound 1-514]	5 (A herbicidal effect or phytotoxicity of 90% or more)	5 (A herbicidal effect or phytotoxicity of 90% or more)	5 (A herbicidal effect or phytotoxicity of 90% or more)	5 (A herbicidal effect or phytotoxicity of 90% or more)	–	–
CCCC1(C)CC(S(=O)(=O)Cc2c(F)cccc2F)=NO1 (centres unmarked) [Compound 1-366]	5 (A herbicidal effect or phytotoxicity of 90% or more)	–	–	4 (A herbicidal effect or phytotoxicity of 70% to less than 90%)	5 (A herbicidal effect or phytotoxicity of 90% or more)	5 (A herbicidal effect or phytotoxicity of 90% or more)
CC1(C)CC(S(=O)(=O)Cc2ccccc2OCC2CC2)=NO1 [Compound 1-608]	5 (A herbicidal effect or phytotoxicity of 90% or more)	5 (A herbicidal effect or phytotoxicity of 90% or more)	5 (A herbicidal effect or phytotoxicity of 90% or more)	5 (A herbicidal effect or phytotoxicity of 90% or more)	–	–
CC1(C2CC2)CC(S(=O)(=O)Cc2c(F)cccc2F)=NO1 (centres unmarked) [Compound 1-378]	5 (A herbicidal effect or phytotoxicity of 90% or more)	–	–	5 (A herbicidal effect or phytotoxicity of 90% or more)	5 (A herbicidal effect or phytotoxicity of 90% or more)	5 (A herbicidal effect or phytotoxicity of 90% or more)
C=CCOc1ccccc1CS(=O)(=O)C1=NOC(C)(C)C1 [Compound 1-589]	5 (A herbicidal effect or phytotoxicity of 90% or more)	5 (A herbicidal effect or phytotoxicity of 90% or more)	5 (A herbicidal effect or phytotoxicity of 90% or more)	4 (A herbicidal effect or phytotoxicity of 70% to less than 90%)	–	–
CC1(C2CC2)CC(S(=O)(=O)Cc2ccccc2OC(F)F)=NO1 (centres unmarked) [Compound 1-562]	5 (A herbicidal effect or phytotoxicity of 90% or more)	5 (A herbicidal effect or phytotoxicity of 90% or more)	5 (A herbicidal effect or phytotoxicity of 90% or more)	4 (A herbicidal effect or phytotoxicity of 70% to less than 90%)	–	–
CC1(C)CC(S(=O)(=O)Cc2ccccc2)=NO1 [Compound 1-1]	5 (A herbicidal effect or phytotoxicity of 90% or more)	–	–	5 (A herbicidal effect or phytotoxicity of 90% or more)	5 (A herbicidal effect or phytotoxicity of 90% or more)	5 (A herbicidal effect or phytotoxicity of 90% or more)
CC1(C)CC(S(=O)(=O)Cc2c(Cl)cccc2Cl)=NO1 [Compound 1-490]	5 (A herbicidal effect or phytotoxicity of 90% or more)	–	–	4 (A herbicidal effect or phytotoxicity of 70% to less than 90%)	5 (A herbicidal effect or phytotoxicity of 90% or more)	4 (A herbicidal effect or phytotoxicity of 70% to less than 90%)
CC1(C)CC(S(=O)(=O)Cc2cc(Cl)ccc2Cl)=NO1 [Compound 1-489]	5 (A herbicidal effect or phytotoxicity of 90% or more)	–	–	4 (A herbicidal effect or phytotoxicity of 70% to less than 90%)	5 (A herbicidal effect or phytotoxicity of 90% or more)	5 (A herbicidal effect or phytotoxicity of 90% or more)
Cc1cccc(CS(=O)(=O)C2=NOC(C)(C)C2)c1C [Compound 1-522]	5 (A herbicidal effect or phytotoxicity of 90% or more)	5 (A herbicidal effect or phytotoxicity of 90% or more)	5 (A herbicidal effect or phytotoxicity of 90% or more)	5 (A herbicidal effect or phytotoxicity of 90% or more)	–	–
Cc1cccc(OC(C)C)c1CS(=O)(=O)C1=NOC(C)(C)C1 [Compound 1-604]	5 (A herbicidal effect or phytotoxicity of 90% or more)	5 (A herbicidal effect or phytotoxicity of 90% or more)	5 (A herbicidal effect or phytotoxicity of 90% or more)	5 (A herbicidal effect or phytotoxicity of 90% or more)	–	–
CC1(C)CC(S(=O)(=O)Cc2cc(F)cc(F)c2F)=NO1 [Compound 1-508]	5 (A herbicidal effect or phytotoxicity of 90% or more)	5 (A herbicidal effect or phytotoxicity of 90% or more)	5 (A herbicidal effect or phytotoxicity of 90% or more)	4 (A herbicidal effect or phytotoxicity of 70% to less than 90%)	–	–
CCC1(C)CC(S(=O)(=O)Cc2ccccc2Cl)=NO1 (centres unmarked) [Compound 1-192]	5 (A herbicidal effect or phytotoxicity of 90% or more)	–	–	4 (A herbicidal effect or phytotoxicity of 70% to less than 90%)	5 (A herbicidal effect or phytotoxicity of 90% or more)	5 (A herbicidal effect or phytotoxicity of 90% or more)
CCCOc1cccc(Cl)c1CS(=O)(=O)C1=NOC(C)(C)C1 [Compound 1-565]	5 (A herbicidal effect or phytotoxicity of 90% or more)	5 (A herbicidal effect or phytotoxicity of 90% or more)	5 (A herbicidal effect or phytotoxicity of 90% or more)	4 (A herbicidal effect or phytotoxicity of 70% to less than 90%)	–	–
CC1(C)CC(S(=O)(=O)Cc2ccccc2OC(F)F)=NO1 [Compound 1-55]	5 (A herbicidal effect or phytotoxicity of 90% or more)	–	–	4 (A herbicidal effect or phytotoxicity of 70% to less than 90%)	5 (A herbicidal effect or phytotoxicity of 90% or more)	5 (A herbicidal effect or phytotoxicity of 90% or more)
